Experimental data published in patent US20250179531A1, “COMPOSITIONS AND METHODS FOR HOMOLOGY-DIRECTED REPAIR GENE MODIFICATION” (VOR BIOPHARMA INC., priority 2022, published 2025).

Assays:
Assay type in all cases: cell-based, human
CCR5 gene = test: ICE analysis of sequencing data, Pvu1 site insertion into CCR5 in CD34+ cells; details: for HDR-mediated editing efficiency (promoting HDR): CD34+ cells in SCGM with hSCF, FLT3-L, TPO, added to RNP and ssODN, FIG. 4A; for efficiency of HDR in CD34+ cells: SR1 and UM171, in the presence or in the absence of IL-6
Protocol: The presence of the Pvu1 restriction site in the CCR5 locus was also detected by sequencing. Sequencing data was analyzed via inference of CRISPR/Cas9 (ICE) software to quantify the percent of insertion of the 6 nucleotide Pvu1 site.
To determine conditions that would enhance HDR-mediated editing efficiency, the role of media conditions was assessed. CD34+ cells were cultured in stromal cell growth media (SCGM) supplemented with human stem cell factor (hSCF), Fms-like tyrosine kinase 3 Ligand (FLT3-L), and thrombopoietin (TPO) to promote cell differentiation and proliferation. Using ICE analysis of sequencing data to detect Pvu1 restriction site insertion into the CCR5 gene of CD34+ cells, cells were electroporated with DNA repair modulators to skew repair pathway utilization toward HDR following Cas9 cleavage in combination with cell expansion compounds Interleukin-6 (IL6), StemRegenin 1 (SR1), and UM171 in addition to RNP and ssODN. DNA repair modulators investigated included SCR7 (a ligase IV inhibitor), NU7441 (a DNA-PK inhibitor), Rucaparib (a PARP inhibitor), and RS-1 (an HDR enhancer).

GBA gene = test: Editing of the GBA gene in CD34+ cells, ICE analysis of sequencing data
Excerpt: CD34+ cells were electroporated with RNP comprising the designed sgRNAs and with the designed ssODNs. Cells were screened by ICE analysis of sequencing data.
To optimize HDR-mediated editing of the GBA gene loci associated with Gaucher disease, ssODN candidates were screened for their ability to promote high editing efficiencies. Four ssODNs (ssODN1-4) comprising a sequence with a modification to generate the N409S mutation in exon 9 of the GBA gene and two ssODNs (ssODN5 and ssODN6) comprising a sequence with a modification to generate the L483P mutation in exon 10 of the GBA gene were screened. CD34+ cells were electroporated with different combinations of RNPs and ssODNs that corresponded to their respective target sequences, as described above, grown for 2-3 days, and then analyzed for cell viability and by sequencing (FIG. 10A).

T cells = test: T cell viability after electroporation and addition of NHEJ modulators; details: NU7441 1 μM, SCR7 5 μM, and/or SR1 5 μM in media 24 hours post-electroporation
RAB11a locus = test: Flow cytometry of EGFP reporter from capped dsODN integrated at RAB11a in T cells; details: 3 μg Cas9, 3 μg RAB11a sgRNA, 1 μg capped dsODN; NU7441 1 μM, SCR7 5 μM, and/or SR1 5 μM in media 24 hours post-electroporation
Excerpt: Two respective capped, dsODNs were designed comprising an EGFP reporter and homology arms to direct integration at either the AAVS1 or RAB11a loci in T cells (FIG. 16A-16B). T cells were electroporated with dsODN and Cas9 RNP as described herein. Flow cytometry analyses were used to confirm EGFP expression in electroporated T cells. Approximately 20% of cells electroporated with capped, AAVS1 dsODN and 38% of cells electroporated with capped, RAB11a dsODN were GFP positive (FIG. 17A).

## CNCc1ccc(-c2[nH]c3cc(F)cc4c3c2CCNC4=O)cc1 [Rucaparib]
CCR5 gene
  HDR-mediated editing efficiency (promoting HDR): no significant advantage

## SG2: Cas9 sgRNA to human GBA, position 1226; targeting domain CACAUGGUACAGGAGGUUCU (SEQ ID NO: 6) (as printed in the source, key not given here)
GBA gene
  editing efficiency of exon 9 of the GBA gene: high editing efficiency

## SG1: Cas9 sgRNA to human GBA, position 1226; targeting domain ACAUGGUACAGGAGGUUCUA (SEQ ID NO: 3) (as printed in the source, key not given here)
GBA gene
  editing efficiency of exon 9 of the GBA gene: high editing efficiency

## SG6: Cas9 sgRNA to human GBA, position 1448; targeting domain UGCCAGUCAGAAGAACGACC (SEQ ID NO: 18) (as printed in the source, key not given here)
GBA gene
  editing efficiency of exon 10 of the GBA gene: high editing efficiency

## CC(C)n1cnc2c(NCCc3ccc(O)cc3)nc(-c3csc4ccccc34)nc21 [SR1, StemRegenin 1]
CCR5 gene
  HDR-mediated editing efficiency (promoting HDR): improved
  efficiency of HDR in CD34+ cells: significantly increase
T cells
  T cell viability: reduced
RAB11a locus
  increase in GFP expression: approximately 10%

## SG4: Cas9 sgRNA to human GBA, position 1226; targeting domain CUAGAACCUCCUGUACCAUG (SEQ ID NO: 12) (as printed in the source, key not given here)
GBA gene
  editing efficiency of exon 9 of the GBA gene: high editing efficiency

## O=C(Nc1ccc(Br)cc1)c1ccc(Br)c(S(=O)(=O)NCc2ccccc2)c1 [RS-1]
CCR5 gene
  HDR-mediated editing efficiency (promoting HDR): no significant advantage

## Interleukin-6 [IL6]
CCR5 gene
  HDR-mediated editing efficiency (promoting HDR): improved
CCR5 gene; presence or absence of IL6 in CD34+ cell media, FIG. 4B
  overall editing efficiency: did not significantly affect
CCR5 gene; presence or absence of IL6 in CD34+ cell media, FIG. 4C
  HDR: did not significantly affect

## O=c1[nH]c(=S)[nH]c(N=Cc2ccccc2)c1N=Cc1ccccc1 [SCR7]
CCR5 gene
  HDR-mediated editing efficiency (promoting HDR): no significant advantage
RAB11a locus
  increase in GFP expression: approximately 10%

## O=c1cc(N2CCOCC2)oc2c(-c3cccc4c3sc3ccccc34)cccc12 [NU7441]
CCR5 gene
  HDR-mediated editing efficiency (promoting HDR): no significant advantage
T cells
  T cell viability: reduced
RAB11a locus
  increase in GFP expression: approximately 10%

## Cn1nnc(-c2ccc3c(c2)[nH]c2nc(Cc4ccccc4)nc(NC4CCC(N)CC4)c23)n1 (stereo not drawn) [UM171]
CCR5 gene
  HDR-mediated editing efficiency (promoting HDR): improved
  efficiency of HDR in CD34+ cells: significantly increase

## SG7: Cas9 sgRNA to human GBA, position 1448; targeting domain GCAUCAGUGCCACUGCGUCC (SEQ ID NO: 21) (as printed in the source, key not given here)
GBA gene
  editing efficiency of exon 10 of the GBA gene: high editing efficiency
